Results on two compounds are retold here after patent publication US9510593B2, “S-benzylthiouracil compounds and methods of enhancing plant root growth” (Valent BioSciences Corporation, priority 2014, dated 2016).

What all share (format): in vivo
One test deals with tomato. Nature of the test: Tomato petri plate assay. As to conditions: Solanum lycopersicum, 144 h; 10 ppm; after 6 days of continuous exposure; read-out: Percent Increase (percent change in primary tomato root length). Here is the method:
For tomato, the plants were grown in disposable (150 mm) sterile plastic petri plates (Falcon, BD Biosciences, Franklin Lakes, N.J.). In the tomato assay, a single sheet of Whatman #1 filter paper was placed at the bottom of the plate, 15 tomato seeds were added, and 10 mL of treatment solution was added. At the end of 6 d, the 10 largest seedlings were selected for measurement from each plate. In each study, a minimum of 3 replicate plates were used. In tomato, several S-Benzylthiouracil compounds were tested to determine the effects on root growth.

A further test deals with mungbean. Nature of the test: Mungbean pouch assay: growth of primary root and shoot. Conditions: 96 h; 10 ppm (10 mg/L); uracil moiety substitutions; read-out: Percent Change in Primary Root Length of Mungbean. Here is the method: (§1) Seeds were placed in germination pouches consisting of germination paper as an insert in a gas-permeable 16×14 cm plastic pouch (CYG Pouch; Mega International, St. Paul, Minn.). In pouch solution evaluation, S-Benzylthiouracil compounds or their salts were dissolved in a small volume of DMSO and added to sterile water with a maximum of 0.5% v/v DMSO at final dilution. The S-Benzylthiouracil solution was subsequently pipetted into the growth pouch, followed by the addition of seeds of the crop being tested. The pouches were arranged in a randomized complete block design in growth racks and placed in 19-liter polycarbonate food storage containers (Rubbermaid Commercial Products, Winchester, Va.). The sealed containers were held in an upright growth cabinet maintained at 25 C with a 12 hour light: 12 hour dark photoperiod. For rice, plants were harvested at 6 d, while in mungbean and corn, the plants were harvested at 4 d post sowing. Measurements were performed on the primary root and shoot of each seedling. The growth of the primary root of mungbean was examined in the pouch assay system. The results of the testing, presented as percent change in root length across all the free S-Benzylthiouracil compounds is shown below. The following S-Benzylthiouracil compounds have benzyl substitutions as defined in Table 11 below.

Another test relates to rice. Kind of test: Rice pouch assay: growth of primary root and shoot. Conditions: for change in vivo at 10 ppm: Oryza sativa, 144 h, 10 ppm (10 mg/L), uracil moiety substitutions, vs control, read-out: Percent Change in Primary Root Length in Rice. Here is the method:
as §1, with “of rice” for “of mungbean”, “all” for “all the free”, “S-Benzylthiouracil compounds, are” for “S-Benzylthiouracil compounds is”, “below.” for “below. The following S-Benzylthiouracil compounds have benzyl substitutions as defined in Table 11 below.”

With `Oc1cc(O)nc(SCc2cccc(F)c2)n1` [Compound 18], the change in vivo at 10 ppm in the test on tomato amounted to 15.4%; in the test with mungbean it was 11.3%; in the test on rice, 4%. Also, the “Percent Change (rice primary root growth)” value in the test with rice (10 ppm, compounds and water-soluble salts, 6 days after sowing) stood at 4.0%.
For `Oc1cc(O)nc(SCc2ccccc2)n1` [Compound 10], the change in vivo at 10 ppm in the test on tomato worked out at 8.4%; in the test with mungbean, 5.9%; in the test with rice it was 11.5%.
